# Laboratory results taken from US12383539B2 (Cavion, Inc., priority 2018, dated 2025).
# Experiments:
# [1] = test system: patients with essential tremor; assay: T-CALM: Kinesia ONE accelerometry score; format: in vivo, human
# Text: Kinesia One platform is deployed in T-CALM as a digital marker of tremor severity. Kinesia One is FDA cleared for monitoring Parkinson's motor symptom severity with only limited data on assessment of tremor in ET patients. The algorithmically derived score was developed primarily in Parkinson's disease algorithms and has limited validation in ET (see, e.g., Hoffman et al., 2011 Conf Proc IEEE Eng Med Biol Soc. 2011:4378-81). The Kinesia One device is placed on the index finger of each ET patient and worn in the clinic after completion of the TETRAS Performance subscale. Four tasks are performed by the patient on the left and right sides to assess resting, postural, kinetic and lateral wing beating tremor. The Kinesia One score change in score from baseline to day 28 is evaluated as a secondary efficacy endpoint. The Kinesia One data is also utilized for exploratory analysis of efficacy on the change from baseline to day 15 for accelerometry score and for change from baseline on amplitude measures for days 15 and 28. Consistent finger sensor placement and consistent task execution are critical factors for valid Kinesia One scores.
# Both sets of scores were statistically analyzed.
# [2] = Food effect: MR2 capsules fed vs fasted; format: in vivo, human; conditions: MR2 CX-8998, single 8 mg dose
# Text: Subjects will be screened for study eligibility within 28 days before administration of the first dose of study drug. Subjects who meet the study eligibility criteria will be admitted to the clinical research unit in the afternoon of the day before administration of the first dose of study drug (Period 1/Day −1).
smiles,measurement,setting,value
CC(C)c1ccc(CC(=O)N[C@H](C)c2ccc(OCC(F)(F)F)cn2)cc1 [CX-8998],"Kinesia ONE total score, Median",[1]; Day 15,7.9
same,"Kinesia ONE total score, change from baseline, Median",[1]; Day 15,−1.1
same,Kinesia ONE score vs placebo,[1]; Day 15 and Day 28,did not show a significant difference
same,"Kinesia ONE total score, Median",[1]; Day 28,7.8
same,"Kinesia ONE total score, change from baseline, Median",[1]; Day 28,−0.7
same,effect of fed state on overall exposure (AUC),[2],does not appear to significantly impact overall exposure
same,effect of fed vs fasted state on absorption,[2],"impacts early absorption of the CX-8998, but does not appear to significantly impact late absorption"
